Structures are written as SMILES.

Assay type in all cases: cell-based
Assay [1] deals with Ishikawa (K-Ras wild type cell line). Briefly: Viability assay (CellTiterBlue, 72 hr) Ishikawa. The following applies: Homo sapiens, GI50, CellTiterBlue, Ishikawa K-Ras wild-type. In short, it runs like this: (§1)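 Cells were seeded at 1000 per well and allowed 18 hr at 37 °C in CO2 before compound addition (final DMSO 0.5%). After 72 hr exposure, CellTiterBlue was added for 3 hr and fluorescence read at Ex550/Em590. GI50 values were calculated against DMSO (100%) and 100 uM tamoxifen (0%) controls.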
A general note: Resazurin is reduced to fluorescent resorufin, in cell work by metabolically active cells.

Assay [2] has as its system HCC827 (K-Ras wild type cell line). Description: Viability assay (CellTiterBlue, 72 hr) HCC827. The following applies: Homo sapiens, GI50, CellTiterBlue, HCC827 K-Ras wild-type. In short, it runs like this: as §1
The next assay has as its system Panc1-G12D. Briefly: Viability assay (CellTiterBlue, 72 hr) Panc1. The following applies: Homo sapiens, PANC-1, GI50, CellTiterBlue, Panc1 K-Ras G12D, read-out: 72 hr Cell Viability Panc1 (G12D). In short, it runs like this: as §1
The next assay concerns Panc10.05-G12D. Briefly: Viability assay (CellTiterBlue, 72 hr) Panc10.05. The following applies: Homo sapiens, Panc1005, GI50, CellTiterBlue, Panc10.05 K-Ras G12D, read-out: 72 hr Cell Viability Panc10.05 (G12D). In short, it runs like this:
as §1

For a further assay, the system named is HCT116-G31D. Description: Viability assay (CellTiterBlue, 72 hr) HCT116. The following applies: Homo sapiens, HCT-116, GI50, CellTiterBlue, HCT116 K-Ras G13D, read-out: 72 hr Cell Viability HCT116 (G13D). In short, it runs like this:
as §1

Assay [3] has as its system phospho-ERK in HCC827 (Wild-type). Briefly: In-Cell Western phospho-ERK, HCC827. The following applies: Homo sapiens, 1 h; HCC827, one hour treatment; read-out: In-Cell Western HCC827 (Wild-type) Erk (P). In short, it runs like this:
(§2)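 EC50 values come from immunofluorescence quantitation of phosphorylated ERK or Akt in fixed cells exposed to compound for one hour at 0.5% DMSO. Maximal inhibition is defined by 1 uM BEZ235 for Akt and 1 uM MEK Inhibitor II for ERK.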

Assay [4] deals with phospho-Akt in HCC827 (Wild-type). Briefly: In-Cell Western phospho-Akt, HCC827. The following applies: Homo sapiens, 1 h; HCC827, one hour treatment; read-out: In-Cell Western HCC827 (Wild-type) Akt (P). The method, then: In-cell phosphorylation assays for Erk and Akt were performed on several of the compounds and exemplary results are shown in Table 3 below using HCC827 and A375 cell lines for wild type K-Ras and Panc1 and Panc10.05 cell lines for G12D K-Ras mutants. Results are expressed in μM and corresponding structures are shown in FIGS. 2A-2G and Examples 1-152, above.
Cells are seeded in complete medium into black sided, clear-bottom 384-well microplates at 3000 cells/[…]/well. Plates are returned to 37° C. CO2 incubator for 18 hr. Drug is made as 200× in DMSO and diluted into medium to 10×. To each well is added 4 ul 10× test article or controls, and plates are returned to the incubator. Final assay DMSO concentration is 0.5%. After one hour, cells are fixed in formaldehyde, rinsed & permeabilized with triton X-100, and blocked with BSA/Goat serum blocking solution. Primary phospho-Akt and phospho-ERK antibodies are added and plates are incubated overnight at 4° C. Plates are rinsed with Tween-20 wash buffer and secondary antibody (Goat anti-rabbit, Thermofisher) is added. After 2 hours, plates are rinsed in Tween-20 wash buffer, and then PBS. Plates are imaged on the Celigo (Nexcelom) and cellular fluorescence is quantitated. Full inhibition of phospho-Akt is achieved with 1 uM BEZ235 (Sellekchem), while full inhibition of phospho-ERK is achieved with 1 uM MEK Inhibitor II Calbiochem). EC50 values are calculated using Graphpad Prism.

Assay [5] relates to phospho-ERK in Panc1 (G12D). Briefly: In-Cell Western phospho-ERK, Panc1. The following applies: Homo sapiens, PANC-1, 1 h; Panc1, one hour treatment; read-out: In-Cell Western Panc1 (G12D) Erk (P). In short, it runs like this: as §2
In assay [6] the test system is phospho-Akt in Panc1 (G12D). Briefly: In-Cell Western phospho-Akt, Panc1. The following applies: Homo sapiens, PANC-1, 1 h; Panc1, one hour treatment; read-out: In-Cell Western Panc1 (G12D) Akt (P). In short, it runs like this: as §2
Assay [7] has as its system phospho-ERK in Panc10.05 (G12D). Briefly: In-Cell Western phospho-ERK, Panc10.05. The following applies: Homo sapiens, Panc1005, 1 h; Panc10.05, one hour treatment; read-out: In-Cell Western Panc10.05 (G12D) Erk (P). In short, it runs like this:
as §2

The subject of assay [8] is phospho-Akt in Panc10.05 (G12D). Description: In-Cell Western phospho-Akt, Panc10.05. The following applies: Homo sapiens, Panc1005, 1 h; Panc10.05, one hour treatment; read-out: In-Cell Western Panc10.05 (G12D) Akt (P). In short, it runs like this:
as §2

The target in the next assay is T1, wild type K-Ras (Homo sapiens, UniProt P01116).
T1 construct: expressed in transfected cells; host or cells: 293H cells
Briefly: G-LISA Ras activation, 293H cells transfected with Ras wild-type, EGF stimulated. The following applies: compound 1 hour, then 100 ng/ml EGF 2 minutes. In short, it runs like this: (§3)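 Cells: 293H, Ras plasmid transfection (5 μg). Cpd 3.125-25 μM, 1 h; WT cells + EGF 100 ng/ml, 2 min. Lysed on ice; active Ras by G-LISA.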

Another assay concerns the target T2, K-Ras G12D (Homo sapiens, UniProt P01116, G12D).
T2 construct: expressed in transfected cells; host or cells: 293H cells
Briefly: G-LISA Ras activation, 293H cells transfected with G12D mutant. The following applies: compound 1 hour. In short, it runs like this:
as §3

Assay [9] deals with U87-MG (K-Ras wild type cell line). Description: Viability assay (CellTiterBlue, 72 hr) U87-MG. The following applies: Homo sapiens, U-87 MG, GI50, CellTiterBlue, U87-MG K-Ras wild-type. In short, it runs like this:
as §1

T2 sequence (P01116 whole entry G12D): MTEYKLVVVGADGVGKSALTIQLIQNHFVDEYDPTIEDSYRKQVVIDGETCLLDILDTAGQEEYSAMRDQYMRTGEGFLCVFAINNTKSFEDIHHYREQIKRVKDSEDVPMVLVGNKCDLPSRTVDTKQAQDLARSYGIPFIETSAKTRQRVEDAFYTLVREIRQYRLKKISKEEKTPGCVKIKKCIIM
T1 sequence (P01116 whole entry): as the sequence (P01116 whole entry G12D) above, with D12G counted along it

As for `Cc1nc(C2CCOC2O)sc1C(=O)Nc1nc(-c2ccc3c(c2)CCC(=O)N3Cc2cccnc2)cs1` (stereo not drawn) [Compound 71, 2-(2-hydroxytetrahydrofuran-3-yl)-4-methyl-N-(4-(2-oxo-1-(pyridin-3-ylmethyl)-1,2,3,4-tetrahydroquinolin-6-yl)thiazol-2-yl)thiazole-5-carboxamide], the IC50 was determined as 6 µM in assay [1]; 7 µM in assay [2]; 22 µM with Panc1-G12D; 6 µM in the assay with Panc10.05-G12D; 9 µM in the assay on HCT116-G31D. Also, the EC50 in assay [3] is 16 µM; in assay [4], 27 µM; in assay [5] it was 25 µM; in [6] it was 18 µM; in assay [7], 16 µM; in [8] it was greater than 25 µM.

`Cc1nc(C2CC2)oc1C(=O)Nc1nc(-c2ccc3c(c2)CCC(=O)N3Cc2cccnc2)cs1` [Compound 72, 2-cyclopropyl-4-methyl-N-(4-(2-oxo-1-(pyridin-3-ylmethyl)-1,2,3,4-tetrahydroquinolin-6-yl)thiazol-2-yl)oxazole-5-carboxamide]: the IC50 at wild type K-Ras is 8 µM; at K-Ras G12D it was 8 µM; in [1] it was 2 µM; in assay [2], greater than 25 µM; in the assay on Panc1-G12D, 13 µM; in the assay with Panc10.05-G12D it was 2 µM. Further, the IC50 in the assay with HCT116-G31D is greater than 25 µM. Also, the EC50 in assay [3] was 14 µM; in assay [4], 19 µM; in assay [5] it was 3 µM; in assay [6] it was 2 µM; in assay [7], 5 µM; in assay [8], 19 µM.

Consider `Cc1nn(C)c(C)c1C(=O)Nc1nc(-c2ccc3c(c2)CCC(=O)N3)cs1` [Compound 40, 1,3,5-trimethyl-N-(4-(2-oxo-1,2,3,4-tetrahydroquinolin-6-yl)thiazol-2-yl)-1H-pyrazole-4-carboxamide], for which the IC50 against wild type K-Ras is 23.3 µM; against K-Ras G12D it was 6.1 µM; in assay [1] it was greater than 25 µM; in assay [9] it was 9 µM; in assay [2] it was 7 µM; with Panc1-G12D, 24 µM. Further, the IC50 in the assay on Panc10.05-G12D and in the assay with HCT116-G31D was greater than 25 µM throughout. Besides, the EC50 in assay [3] is greater than 25 µM; in assay [4] it was 25 µM; in assay [5], 8 µM; in assay [6], 7 µM.

`Cc1nc(C)c(C(=O)Nc2nc(-c3ccc4c(c3)CCC(=O)N4CC3CCOC3)cs2)o1` (stereo not drawn) [Compound 67, 2,4-dimethyl-N-(4-(2-oxo-1-((tetrahydrofuran-3-yl)methyl)-1,2,3,4-tetrahydroquinolin-6-yl)thiazol-2-yl)oxazole-5-carboxamide]: the IC50 on wild type K-Ras was greater than 25 µM; against K-Ras G12D it was 8 µM; in [1], 2 µM; in assay [2] it was 3 µM; in the assay on Panc1-G12D, 4 µM; in the assay on Panc10.05-G12D it was 2 µM. Moreover, the IC50 in the assay on HCT116-G31D worked out at 2 µM. Moreover, the EC50 was determined as 4 µM in assay [3]; 10 µM in assay [4]; 3 µM in assay [5]; 6 µM in [7]; 23 µM in [8].

Turning to `CCn1nc(C)c(C(=O)Nc2nc(-c3ccc4c(c3)CCC(=O)N4)cs2)c1C` [Compound 41, 1-ethyl-3,5-dimethyl-N-(4-(2-oxo-1,2,3,4-tetrahydroquinolin-6-yl)thiazol-2-yl)-1H-pyrazole-4-carboxamide], the IC50 came to 7.5 µM against wild type K-Ras; 4.3 µM against K-Ras G12D; 18 µM in assay [1]; 7 µM in [9]; 6 µM in assay [2]; 12 µM in the assay on Panc1-G12D. The IC50 with Panc10.05-G12D is 19 µM; in the assay on HCT116-G31D, greater than 25 µM. Further, the EC50 in assay [3] is 22 µM; in assay [4] it was greater than 25 µM; in assay [5], 2 µM; in assay [6], 3 µM.

Turning to `CCc1nn(C)cc1C(=O)Nc1nc(-c2ccc3c(c2)CCC(=O)N3)cs1` [Compound 37, 3-ethyl-1-methyl-N-(4-(2-oxo-1,2,3,4-tetrahydroquinolin-6-yl)thiazol-2-yl)-1H-pyrazole-4-carboxamide], the IC50 was greater than 25 µM against K-Ras G12D; greater than 25 µM in assay [1]; 6 µM in assay [9]; 7 µM in [2]; greater than 25 µM in the assay on Panc1-G12D; greater than 25 µM in the assay with Panc10.05-G12D. The IC50 in the assay with HCT116-G31D was greater than 25 µM. For the same molecule, the EC50 was greater than 25 µM in [3], greater than 25 µM in [4], greater than 25 µM in assay [5] and 26 µM in assay [6].

Consider `Cc1nn(C(C)C)cc1C(=O)Nc1nc(-c2ccc3c(c2)CCC(=O)N3)cs1` [Compound 36, 1-isopropyl-3-methyl-N-(4-(2-oxo-1,2,3,4-tetrahydroquinolin-6-yl)thiazol-2-yl)-1N-pyrazole-4-carboxamide], for which the IC50 at wild type K-Ras was 18.3 µM; at K-Ras G12D, 7 µM; in assay [1], 7 µM; in assay [9], greater than 25 µM; in assay [2], greater than 25 µM; with Panc1-G12D it was 14 µM. Besides, the IC50 in the assay on Panc10.05-G12D was 3 µM; in the assay on HCT116-G31D, greater than 25 µM. Further, the EC50 was 20 µM in assay [3], greater than 25 µM in [4], 2 µM in assay [5] and 15 µM in assay [6].

For the molecule `CCn1cc(C(=O)Nc2nc(-c3ccc4c(c3)CCC(=O)N4)cs2)cn1` [Compound 34, 1-ethyl-N-(4-(2-oxo-1,2,3,4-tetrahydroquinolin-6-yl)thiazol-2-yl)-1H-pyrazole-4-carboxamide], the IC50 on K-Ras G12D was 15.8 µM; in assay [1], 9 µM; in assay [9], greater than 25 µM; in assay [2] it was greater than 25 µM; in the assay on Panc1-G12D, greater than 25 µM; in the assay on Panc10.05-G12D it was 7 µM. In addition, the IC50 in the assay on HCT116-G31D was greater than 25 µM. Also, the EC50 in [3] is greater than 25 µM; in assay [4] it was greater than 25 µM; in assay [5], 15 µM; in [6] it was greater than 25 µM.

As to `Cn1cc(C(=O)Nc2nc(-c3ccc4c(c3)CCC(=O)N4)cs2)c(C(F)(F)F)n1` [Compound 30, 1-methyl-N-(4-(2-oxo-1,2,3,4-tetrahydroquinolin-6-yl)thiazol-2-yl)-3-(trifluoromethyl)-1H-pyrazole-4-carboxamide], the IC50 is greater than 25 µM at K-Ras G12D; 18 µM in [1]; greater than 25 µM in assay [9]; greater than 25 µM in [2]; greater than 25 µM in the assay with Panc1-G12D; 23 µM in the assay with Panc10.05-G12D. Moreover, the IC50 in the assay on HCT116-G31D is greater than 25 µM. Moreover, the EC50 was 16 µM in assay [3], greater than 25 µM in assay [4], 8 µM in assay [5] and greater than 25 µM in [6].

Source of the values: US10344026B2, “Compositions and methods of targeting mutant K-ras” (NANTBIO, INC., priority 2017, dated 2019).
